Measured values published in patent publication US20220226337A1 (Gilead Sciences, Inc., priority 2018, published 2022).

These compounds were tested against T1, α4β7 integrin interaction with MadCAM-1 (RPMI8866 cells) (Homo sapiens, UniProt P13612+P26010) (assay: α4β7 Integrin Cell Capture Assay). Conditions: capture of α4β7 integrin expressing RPMI8866 cells on recombinant MadCAM-1 extracellular domain-coated plate; 0.5 mM MnCl2.
T1 construct: α4β7 integrin expressing cells; endogenous in cells; host or cells: RPMI8866 cells
T1 sequence (P13612 34-1032): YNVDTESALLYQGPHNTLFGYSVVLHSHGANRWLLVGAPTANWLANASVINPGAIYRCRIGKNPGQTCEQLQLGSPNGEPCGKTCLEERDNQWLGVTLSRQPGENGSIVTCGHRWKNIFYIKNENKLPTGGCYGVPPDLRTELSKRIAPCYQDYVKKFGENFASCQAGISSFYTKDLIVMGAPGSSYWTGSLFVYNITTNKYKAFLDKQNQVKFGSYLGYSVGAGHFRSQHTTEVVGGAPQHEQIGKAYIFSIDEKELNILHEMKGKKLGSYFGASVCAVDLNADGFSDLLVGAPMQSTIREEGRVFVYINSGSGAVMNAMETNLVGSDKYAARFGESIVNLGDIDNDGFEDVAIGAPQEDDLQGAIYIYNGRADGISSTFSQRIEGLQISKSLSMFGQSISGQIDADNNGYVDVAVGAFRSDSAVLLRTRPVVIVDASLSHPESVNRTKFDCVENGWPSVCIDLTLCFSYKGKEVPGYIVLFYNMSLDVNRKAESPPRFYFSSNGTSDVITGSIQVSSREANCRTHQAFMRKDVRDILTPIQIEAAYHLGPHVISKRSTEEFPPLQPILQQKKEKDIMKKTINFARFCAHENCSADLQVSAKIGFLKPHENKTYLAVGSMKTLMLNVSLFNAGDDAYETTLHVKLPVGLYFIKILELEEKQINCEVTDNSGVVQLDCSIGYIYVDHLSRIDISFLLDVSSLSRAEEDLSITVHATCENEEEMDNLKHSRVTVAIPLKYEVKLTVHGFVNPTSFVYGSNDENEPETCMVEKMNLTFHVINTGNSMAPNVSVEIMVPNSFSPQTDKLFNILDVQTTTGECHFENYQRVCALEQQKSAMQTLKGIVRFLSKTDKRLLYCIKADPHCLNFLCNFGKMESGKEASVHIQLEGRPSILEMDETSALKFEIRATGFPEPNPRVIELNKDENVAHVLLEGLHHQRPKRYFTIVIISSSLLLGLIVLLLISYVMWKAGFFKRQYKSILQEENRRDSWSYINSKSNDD
T1 sequence (P26010 20-798): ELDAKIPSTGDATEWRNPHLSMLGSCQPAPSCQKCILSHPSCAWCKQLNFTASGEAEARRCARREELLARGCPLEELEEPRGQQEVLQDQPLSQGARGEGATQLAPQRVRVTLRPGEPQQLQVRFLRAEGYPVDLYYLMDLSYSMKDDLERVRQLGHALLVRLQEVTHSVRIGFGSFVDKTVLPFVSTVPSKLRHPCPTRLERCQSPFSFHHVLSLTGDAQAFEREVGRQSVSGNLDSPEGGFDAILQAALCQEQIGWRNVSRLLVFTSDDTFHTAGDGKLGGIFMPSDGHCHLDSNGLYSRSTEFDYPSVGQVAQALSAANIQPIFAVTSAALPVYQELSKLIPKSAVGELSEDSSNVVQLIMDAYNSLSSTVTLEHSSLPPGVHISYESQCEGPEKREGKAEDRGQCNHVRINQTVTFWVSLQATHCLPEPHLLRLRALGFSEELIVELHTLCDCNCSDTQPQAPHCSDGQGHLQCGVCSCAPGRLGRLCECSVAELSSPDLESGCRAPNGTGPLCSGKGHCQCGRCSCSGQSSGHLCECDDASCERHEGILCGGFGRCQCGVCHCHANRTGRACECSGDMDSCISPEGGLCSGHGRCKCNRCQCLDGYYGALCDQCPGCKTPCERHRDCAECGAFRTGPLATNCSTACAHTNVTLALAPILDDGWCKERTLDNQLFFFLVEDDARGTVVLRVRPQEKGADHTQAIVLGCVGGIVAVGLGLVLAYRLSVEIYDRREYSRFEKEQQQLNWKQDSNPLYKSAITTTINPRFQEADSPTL
Assay type: cell-based
How it was run: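 RPMI8866 cells (0.5×10^6 cells/mL in DMEM + 0.5% FBS + 0.5 mM MnCl2) preincubated with compound 1 h at 37 °C, then allowed to adhere 30 min at 37 °C to plates coated with MAdCAM-1 extracellular domain (1.0 μg/mL). Bound cells fixed with 2% glutaraldehyde, Hoechst-stained, imaged and counted; EC50 from cell count versus concentration.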

Compound | EC50 [nM]
Cc1cccc(F)c1C(=O)N[C@@H](Cc1ccc(-c2c(Cl)cc(F)cc2Cl)c2c1OCCO2)C(=O)O [Example 7, (S)-3-(8-(2,6-dichloro-4-fluorophenyl)-2,3-dihydrobenzo[b][1,4]dioxin-5-yl)-2-(2-fluoro-6-methylbenzamido)propanoic acid] | 37.8
CS(=O)(=O)Nc1cc(F)c(C(=O)N[C@@H](Cc2ccc(-c3c(Cl)cc(F)cc3Cl)c3c2CCCO3)C(=O)O)c(F)c1 [Example 92, (S)-3-(8-(2,6-dichloro-4-fluorophenyl)chroman-5-yl)-2-(2,6-difluoro-4-(methylsulfonamido)benzamido)propanoic acid] | 9.19
COc1cc(C)n(C)c(=O)c1-c1ccc(C[C@H](NC(=O)c2c(F)cc(N3CCOC[C@@H]3C(F)(F)F)cc2F)C(=O)O)c2c1OCCC2 [Example 46, (S)-2-(2,6-difluoro-4-((R)-3-(trifluoromethyl)morpholino)benzamido)-3-(8-(4-methoxy-1,6-dimethyl-2-oxo-1,2-dihydropyridin-3-yl)chroman-5-yl)propanoic acid] | 0.25
Cc1cc(C(F)(F)F)c(-c2ccc(C[C@H](NC(=O)c3c(F)cc(N4CCOC[C@@H]4C(F)(F)F)cc3F)C(=O)O)c3c2COC3)c(=O)n1C [Example 19, (S)-2-(2,6-difluoro-4-((R)-3-(trifluoromethyl)morpholino)benzamido)-3-(7-(1,6-dimethyl-2-oxo-4-(trifluoromethyl)-1,2-dihydropyridin-3-yl)-1,3-dihydroisobenzofuran-4-yl)propanoic acid] | 0.193
Cc1cc(C)n(C)c(=O)c1-c1ccc(C[C@H](NC(=O)c2c(F)cc(N[C@H](C)C(F)(F)F)cc2F)C(=O)O)c2c1COC2 [Example 30, (S)-2-(2,6-difluoro-4-(((R)-1,1,1-trifluoropropan-2-yl)amino)benzamido)-3-(7-(1,4,6-trimethyl-2-oxo-1,2-dihydropyridin-3-yl)-1,3-dihydroisobenzofuran-4-yl)propanoic acid] | 1.74
Cc1cc(N2CCOC[C@@H]2C(F)(F)F)cc(F)c1C(=O)N[C@@H](Cc1ccc(-c2c(C)nc(C)n(C)c2=O)c2c1CCC2)C(=O)O [Example 194] | 0.099
COc1cc(C#Cc2ccc(OC(F)(F)F)cc2)cc(OC)c1-c1ccc(C[C@H](NC(=O)c2c(Cl)cccc2Cl)C(=O)O)c2c1OCCC2 [Example 93, (S)-2-(2,6-dichlorobenzamido)-3-(8-(2,6-dimethoxy-4-((4-(trifluoromethoxy)phenyl)ethynyl)phenyl)chroman-5-yl)propanoic acid] | 491
COCN(C(=O)c1c(F)cc(N2CCOC[C@@H]2C(F)(F)F)cc1F)[C@@H](Cc1ccc(-c2nc(C)c(C)n(C)c2=O)c2c1CCCO2)C(=O)O [Example 116] | 19
C[C@@H](Nc1cc(F)c(C(=O)N[C@@H](Cc2ccc(-c3c(Cl)cc(C#N)cc3Cl)c3c2CCCO3)C(=O)O)c(F)c1)C(F)(F)F [Example 91, (S)-3-(8-(2,6-dichloro-4-cyanophenyl)chroman-5-yl)-2-(2,6-difluoro-4-(((R)-1,1,1-trifluoropropan-2-yl)amino)benzamido)propanoic acid] | 11
CC1(C)CCc2c(C[C@H](NC(=O)c3c(Cl)cccc3Cl)C(=O)O)ccc(-c3c(Cl)cc(F)cc3Cl)c2O1 [Example 95, (S)-3-(8-(2,6-dichloro-4-fluorophenyl)-2,2-dimethylchroman-5-yl)-2-(2,6-dichlorobenzamido)propanoic acid] | 625
CC[C@@H](Nc1cc(F)c(C(=O)N[C@@H](Cc2ccc(-c3c(C(F)(F)F)cc(C)n(C)c3=O)c3c2CCCO3)C(=O)O)c(F)c1)C(F)(F)F [Example 43, (S)-2-(2,6-difluoro-4-(((R)-1,1,1-trifluorobutan-2-yl)amino)benzamido)-3-(8-(1,6-dimethyl-2-oxo-4-(trifluoromethyl)-1,2-dihydropyridin-3-yl)chroman-5-yl)propanoic acid] | 0.633
O=C(N[C@@H](Cc1ccc(-c2c(Cl)cc(F)cc2Cl)c2c1OCCC2)C(=O)O)c1c(F)cccc1F [Example 98, (S)-3-(5-(2,6-dichloro-4-fluorophenyl)chroman-8-yl)-2-(2,6-difluorobenzamido)propanoic acid] | 97.8
O=C(N[C@@H](Cc1ccc(-c2c(Cl)cc(F)cc2Cl)c2c1[C@H]1C[C@H]1CO2)C(=O)O)c1c(Cl)cccc1Cl (single isomer, unassigned) [Example 81] | 109
Cc1c(-c2ccc(C[C@H](NC(=O)c3c(F)cccc3F)C(=O)O)c3c2CCOC3)c(=O)n(C)c2ccc(F)cc12 (single isomer, unassigned) [Example 36] | 24.8
CC[C@@H](Nc1cc(F)c(C(=O)N[C@@H](Cc2ccc(-c3c(C(F)(F)F)cc(C)n(C)c3=O)c3c2CN(C)CC3)C(=O)O)c(F)c1)C(F)(F)F [Example 204] | 1.34
(S)-2-(2,6-difluoro-4-(((R)-1,1,1-trifluorobutan-2-yl)amino)benzamido)-3-(7-(1,4-dimethyl-2-oxo-5-(trifluoromethyl)-1,2-dihydropyridin-3-yl)-1,3-dihydroisobenzofuran-4-yl)propanoic acid [Example 25] | 2.85
O=C(N[C@@H](Cc1ccc(-c2c(Cl)cc(F)cc2Cl)c2c1[C@@H]1C[C@@H]1CO2)C(=O)O)c1c(Cl)cccc1Cl (single isomer, unassigned) [Example 82] | 42
Cc1cc(N2CCOC[C@@H]2C(F)(F)F)cc(F)c1C(=O)N[C@@H](Cc1ccc(-c2c(C)nc(C)n(C)c2=O)c2c1CCCO2)C(=O)O (atropisomer, axis not shown) [Example 120] | 0.089
Cc1cc(N2CCOC[C@@H]2C(F)(F)F)cc(F)c1C(=O)N[C@@H](Cc1ccc(-c2c(Cl)cc(C)n(C)c2=O)c2c1CCCO2)C(=O)O (atropisomer, axis not shown) [Example 137] | 0.089
C[C@@H](Nc1cc(F)c(C(=O)N[C@@H](Cc2ccc(-c3c(Cl)cc(F)cc3Cl)c3c2CCCO3)C(=O)O)c(F)c1)C(F)(F)F [Example 50, (S)-3-(8-(2,6-dichloro-4-fluorophenyl)chroman-5-yl)-2-(2,6-difluoro-4-(((R)-1,1,1-trifluoropropan-2-yl)amino)benzamido)propanoic acid] | 43.4
O=C(N[C@@H](Cc1ccc(-c2ncc3ccccc3c2Br)c2c1CCCO2)C(=O)O)c1c(Cl)cccc1Cl [Example 63, (S)-3-(8-(4-bromoisoquinolin-3-yl)chroman-5-yl)-2-(2,6-dichlorobenzamido) propanoic acid] | 7.99
Cn1c(=O)c(-c2ccc(C[C@H](NC(=O)c3c(F)cc(N4CCOC[C@@H]4C(F)(F)F)cc3F)C(=O)O)c3c2COC3)cc2cnccc21 [Example 190] | 0.338
Cc1c(-c2ccc(C[C@H](NC(=O)c3c(F)cccc3F)C(=O)O)c3c2OCCC3)c(=O)n(C)c2ccccc12 [Example 57, (S)-2-(2,6-difluorobenzamido)-3-(8-(1,4-dimethyl-2-oxo-1,2-dihydroquinolin-3-yl)chroman-5-yl)propanoic acid] | 4.19
Cc1cc(N2CCOC[C@@H]2C(F)(F)F)cc(F)c1C(=O)N[C@@H](Cc1ccc(-c2c(N3CCC3)cc(C)n(C)c2=O)c2c1CCCO2)C(=O)O [Example 145] | 0.714
